We go through two substances from patent publication US20100075361A1, “METHODS OF GENERATING FLORESCENCE RESONANCE ENERGY TRANSFER (FRET) BETWEEN SEMICONDUCTOR QUANTUM DOTS AND FLUORESCENT DYES/PROTEINS VIA MULTI-PHOTON EXCITATION, ACHIEVING ZERO BACKGROUND OR DIRECT EXCITATION CONTRIBUTIONS TO THE FRET SIGNATURE” (Government of the United States of America the Secretary of …, priority 2008, published 2010).

Data set [1] in a line: Two-photon action cross-section measurement, fluorescein as standard. Type of data set: physicochemical. As to conditions: Water, 800 nm. From the text: Steady-state composite spectra collected from samples under two-photon excitation were deconvoluted to yield individual photoluminence (PL) contributions using the known spectral profiles of isolated QDs and Cy3 dye emissions (see FIG. 4A, FIG. 4B, FIG. 4C and FIG. 4D).
Table 1 contains data describing two-photon action cross-sections for QDs populations in water and toluene, characterized using fluorescein as a standard in aqueous buffer (φσ2p=36 GM at 800 nm and pH 13), Cy3, fluorescein and wild-type green fluorescent protein (GFP) (from reference 28). Although multi-photon absorption profiles are non-linear optical phenomena, the longer wavelength emitting QD populations show higher two-photon action cross-sections, consistent with the one-photon absorption behavior.

Another data set relates to HEK 293T/17 cells. The data set can be described thus: Two-photon / one-photon fluorescence microscopy of cells incubated with QD-peptide conjugates. It is filed as cell-based, human. As to conditions: two-photon excitation, 840 nm. The text has this: In the first exemplary embodiment, in regard to quantum dot peptide conjugates, cell penetrating peptide (CPP) was synthesized by Boc-solid phase peptide synthesis with the sequence (His)8-Trp-Gly-Leu-Ala-Aib-Ser-Gly-(Arg)8-amide, where Aib is the artificial residue alpha-amino isobutyric acid. The Cy3-labeled peptide was synthesized with the sequence, Ac-(His)6-Gly-Leu-Aib-[…]NH2, where Ac is an acetyl group at the N-terminus. This peptide was labeled with a maleimide-functionalized Cy3 at the cysteine residue. The polyhistidine sequences at the N-termini of the peptides allowed and/or caused their self-assembly on the QD surface. […]
Exemplary embodiments show a unique advantage of two-photon excitation to probe energy transfer between QDs and conjugated dye acceptors, while investigating the stability of self-assembled QD-peptide conjugates within cells using fluorescence microscopy. […]
Further, in the first exemplary embodiment, in regard to cell imaging, two-photon cell imaging is performed with a BIO-RAD MRC-1024 MP confocal system using ˜10 mW of 840 nm pulsed excitation (˜80 fs, 80 MHz) at the focal plane of a 60×, 0.9 NA water immersion objective microscope. […] DAPI fluorescence cross-talk was subtracted from the QD channel. […]

In data set [1], Cy3 displayed a Two-photon action cross-section of less than 1 GM.

“Tf-Cy3: Cy3-labeled transferrin, endosomal marker, mixed with unlabeled CPP-QD, not bound to QDs”: the “Cy3 fluorescence / FRET from QDs to Cy3 in cells” value in the data set on HEK 293T/17 cells was “does not show any evidence of Cy3 fluorescence”.
